Literature values, collected in patent US20200368234A1, “PHOTORECEPTOR GENE MODULATOR PHOTOREGULIN 3 FOR TREATMENT OF RETINAL DISEASE” (University of Washington, priority 2017, published 2020).

How the values were obtained:
rod gene expression = details: developing or mature retina treated with PR1; previously reported; cited from earlier work
Rho^P23H = Rho^P23H model of RP; previously reported; cited from earlier work
Pde6b^Rd1 = Pde6b^Rd1 model of RP; previously reported; cited from earlier work

Cc1cc(C)cc(NC(=O)CCc2nc3sc4c(c3c(=O)[nH]2)CCCC4)c1 [PR1]
rod and cone gene expression (rod gene expression): reduces rod gene expression and increases the expression of some cone genes | rod degeneration in vitro (Rho^P23H): slows rod degeneration in vitro | rod degeneration in vitro (Pde6b^Rd1): slows rod degeneration in vitro
